In PubChem BioAssay (NCI):
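Cultured in 96-well plates, cells were exposed to test compound for 48 hours across five concentrations. Here, GI50 denotes the concentration required for 50% inhibition of growth. TGI denotes the concentration required for complete inhibition of growth.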

How the values were obtained:
Assay in all cases: inhibition of tumour cell growth, NCI panel, 48 h
[1] = tested on: SK-MEL-28 melanoma
[2] = tested on: UACC-257 melanoma
[3] = tested on: SK-MEL-5 melanoma
[4] = tested on: ACHN renal
[5] = tested on: MALME-3M melanoma
[6] = tested on: PC-3 prostate
[7] = tested on: NCI/ADR-RES ovarian
[8] = tested on: HCC-2998 colon
[9] = tested on: HCT-15 colon
[10] = tested on: HCT-116 colon
[11] = tested on: CAKI-1 renal
[12] = tested on: U251 CNS
[13] = tested on: KM12 colon
[14] = tested on: SR leukemia

SMILES | TGI [1] | TGI [2] | TGI [3] | TGI [4] | TGI [5] | TGI [6] | TGI [7] | TGI [8] | TGI [9] | TGI [10] | TGI [11] | TGI [12] | TGI [13] | TGI [14] | GI50 [2] | GI50 [4] | GI50 [7]
[O-][n+]1onc(-c2ccccc2)c1CN1CCOCC1 | > 100 µM | > 100 µM | > 100 µM | > 100 µM | > 100 µM | > 100 µM | > 100 µM | > 100 µM | > 100 µM | > 100 µM | > 100 µM | > 100 µM | > 100 µM | – | – | – | –
Nc1cn(Cc2ccccc2)c2nc(/C=C3/C=CC=CC3=O)c(O)n12 | > 100 µM | > 100 µM | > 100 µM | > 100 µM | > 100 µM | > 100 µM | > 100 µM | > 100 µM | > 100 µM | > 100 µM | > 100 µM | > 100 µM | > 100 µM | – | – | – | –
Cc1cc(NCCCCCCCCCC[n+]2c(C)cc(N)c3ccccc32)c2ccccc2n1 | 3.82 µM | – | 0.695 µM | 10.1 µM | 18.5 µM | 13.7 µM | 74.8 µM | 6.01 µM | 18.4 µM | 11.7 µM | 30.7 µM | 4.3 µM | 2.4 µM | – | – | – | –
O=c1oc2ccccc2c(O)c1C(c1ccc(/C=C/c2ccccc2)cc1)c1c(O)c2ccccc2oc1=O | 86.9 µM | > 100 µM | 74.4 µM | 35.6 µM | 65.7 µM | > 100 µM | 60.3 µM | 45.2 µM | > 100 µM | > 100 µM | 61.3 µM | 43.9 µM | 64.4 µM | – | – | – | –
CSC1=N/C(=C\c2ccco2)C(=O)N1CN1CCCCC1 | > 100 µM | – | > 100 µM | > 100 µM | > 100 µM | > 100 µM | > 100 µM | – | > 100 µM | > 100 µM | – | > 100 µM | > 100 µM | > 100 µM | – | – | –
CC1=CC(=O)C(=O)C2=C1OC1(C2)C(C)CCC2C3(C)CCC(O)C(C)(C)C3CCC21C (stereo not given) | 42.9 µM | 34.3 µM | 33.4 µM | 31.9 µM | 35.3 µM | – | – | 34 µM | 42.1 µM | 30.2 µM | 33.8 µM | 29.9 µM | 29.9 µM | > 100 µM | – | – | –
NC(=O)C(c1ccccc1)N1OC2C(=O)N(c3cccc4ccccc34)C(=O)C2C1c1c2ccccc2c(Cl)c2ccccc12 (stereo not given) | 34.6 µM | 15.7 µM | 11.2 µM | 20.2 µM | 35.7 µM | 18.6 µM | 28.2 µM | – | 16.4 µM | 3.05 µM | 22.7 µM | 15.9 µM | 7.75 µM | 3.8 µM | – | – | –
O=C1c2ccccc2-c2ccc(N=Nc3c(O)ccc4ccccc34)cc21 | > 100 µM | > 100 µM | > 100 µM | – | > 100 µM | > 100 µM | > 100 µM | – | > 100 µM | > 100 µM | > 100 µM | > 100 µM | > 100 µM | – | – | – | –
CCSC1=N/C(=C\c2ccco2)C(Cl)=N1 | > 100 µM | > 100 µM | > 100 µM | > 100 µM | – | > 100 µM | > 100 µM | – | > 100 µM | > 100 µM | > 100 µM | > 100 µM | > 100 µM | > 100 µM | – | – | –
CCOC(=O)NC(=O)c1cn(CCCOC(=O)CCCCCCCCCCC(=O)OCCCn2cc(C(=O)NC(=O)OCC)c(=O)n(C)c2=O)c(=O)n(C)c1=O | > 100 µM | > 100 µM | > 100 µM | > 100 µM | > 100 µM | – | – | > 100 µM | > 100 µM | > 100 µM | > 100 µM | > 100 µM | > 100 µM | > 100 µM | – | – | –
Cc1ccc(/C=C/C(=O)c2sc(-c3cccnc3)nc2C)cc1 | – | > 100 µM | > 100 µM | > 100 µM | > 100 µM | – | – | > 100 µM | > 100 µM | – | > 100 µM | > 100 µM | > 100 µM | – | – | – | –
COC(=O)C1[C@@H](C(=O)OC)C12C=Cc1ccccc1C=C2 (stereo not given in full) | > 100 µM | > 100 µM | > 100 µM | > 100 µM | > 100 µM | – | – | > 100 µM | > 100 µM | > 100 µM | – | > 100 µM | > 100 µM | > 100 µM | – | – | –
Cc1ccc(Nc2nc(N)nc3c2ncn3C2OC(CO)C(O)C2O)cc1 (stereo not given) | > 100 µM | > 100 µM | > 100 µM | > 100 µM | > 100 µM | > 100 µM | > 100 µM | > 100 µM | > 100 µM | > 100 µM | > 100 µM | > 100 µM | > 100 µM | – | – | – | –
CCCCCCCCCCCCC(O)C1CCC(C(O)CCCCCCC(O)CCCCCCCC2=CC(C)OC2=O)O1 (stereo not given) | > 100 µM | 85.9 µM | 22.2 µM | > 100 µM | 56.7 µM | 90.7 µM | > 100 µM | 82.5 µM | > 100 µM | > 100 µM | 71.9 µM | > 100 µM | > 100 µM | – | 12.1 µM | 18.9 µM | 31.5 µM
Cn1c(NS(=O)(=O)c2ccccc2)nc2ccccc21 | > 100 µM | > 100 µM | > 100 µM | > 100 µM | > 100 µM | – | > 100 µM | > 100 µM | > 100 µM | > 100 µM | > 100 µM | > 100 µM | > 100 µM | > 100 µM | – | – | –
O=C(c1ccco1)N(C(=S)N1CCN(c2ccccn2)CC1)C1CCCCC1 | > 100 µM | > 100 µM | > 100 µM | > 100 µM | > 100 µM | – | – | – | > 100 µM | > 100 µM | > 100 µM | > 100 µM | > 100 µM | > 100 µM | – | – | –
CCCN1CN(C(C(=O)N[C@@H]2C(=O)N3C(C(=O)O)=C(C)CSC23)c2ccc(O)cc2)CSC1=S (stereo not given in full) | > 100 µM | > 100 µM | > 100 µM | > 100 µM | > 100 µM | – | – | – | > 100 µM | > 100 µM | > 100 µM | > 100 µM | > 100 µM | – | – | – | –
